The numbers were not newly measured in PMC6271893, “In Vitro Antioxidant and Cytotoxic Activity of Some Synthetic Riparin-Derived Compounds” (Molecules, 2014), which cites them from elsewhere.

The subject of the data set is larynx carcinoma cell line HEP-2. Further details: method as in PMID 23569415. The note with it: cited from earlier work.

In brackets after ≈: the same amount, converted by molar mass.

On to heyneanine, for which the “IC50 on HEP-2” value is on record as 689.45 µg/mL. Take `CC[C@H]1C[C@@H]2CN3CCc4c([nH]c5ccccc45)[C@](C(=O)OC)(C2)[C@H]13` [Coronaridine, coronaridine]: the “IC50 on HEP-2” value is given as 54.47 µg/mL (≈ 161 µM).
